According to patent US9578878B2, “Antimicrobial efficacy of an oregano oil and caprylic acid blend” (Kemin Industries, Inc., priority 2014, dated 2017):

Key:
[1] = system: C. albicans; assay: Zone of inhibition assay; assay type: cell-based, Candida albicans; details: 20 μL per 6 mm disk, 72 hrs, n = 3
Protocol: (§1) For assays to find minimum inhibitory concentrations, all treatments were diluted in 10% DMSO and 0.5% Tween 80 to stabilize the samples.
(§2) Microorganisms Escherichia coli (ATCC #8739), Streptococcus sanguinis (ATCC #BAA-1455), Salmonella enteria subsp. enterica (ex Kauffmann and Edwards) Le Minor and Popoff serovar Typhimurium (ATCC #14028), Staphylococcus aureus (ATCC #6538), Pseudomonas aeruginosa (ATCC #9027), and Candida albicans (ATCC #10231) were obtained from a −80° C. internal stock culture. Aspergillus brasiliensis (ATCC #16404) was obtained from an internal stock solution culture stored at 4° C. E. coli, S. enterica S. aureus, and P. aeruginosa were grown in tryptic soy broth (TSB) and incubated at 37° C. for 24 h. S. sanguinis was grown in brain heart infusion broth (BHI). A. brasiliensis was plated on Sabourand dextrose agar (SDA) and incubated at 25° C. for 5-7 days. C. albicans was grown in Sabourand dextrose broth (SDB) and incubated at 25° C. for 48 h.
(§3) A. brasiliensis was harvested by adding 18 mL sterile saline to the plate and agitating the mold from the agar with a sterile inoculating loop. The inoculum was collected upon agitation. All suspended microbes were diluted with the same type of broth media used to grow each organism until an inoculum in the range of 10^6 CFU/mL was achieved. The inoculum concentration was determined by plate count method. Each strain was identified by plating on the appropriate growth media, E. coli, S. aureus, and P. aeruginosa on tryptic soy agar (Bacto, BD Sciences, Manassas, Va.) and C. albicans and A. brasiliensis on Sabrouand dextrose agar, to ensure there was no contamination of the inoculum.
A zone of inhibition assay was used for A. brasiliensis and C. albicans. SDA was used as the plated medium. Inocula at 10^5 cfu/ml were prepared and counted using a Petroff-Hausser counting chamber. The diameter of no growth around a 6 mm blank disk after incubation at 25° C. for 72 hrs was compared to the untreated control. 20 μL of treatment was applied to each disk in triplicate. 10% DMSO was used as the control.

[2] = system: A. brasiliensis; assay: Poison agar assay; assay type: cell-based, Aspergillus brasiliensis
Protocol: as §2, §3
A poison agar assay was completed for A. brasiliensis. Potato dextrose agar was used as the plated medium. Inocula at 10^5 cfu/ml were prepared and counted using a Petroff-Hausser counting chamber. Each treatment was added directly into the control without DMSO and Tween 80 as used in the previous experiments. The diameter of no growth around a 6 mm blank disk after incubation at 25° C. for 72 hrs was compared to the untreated control.

[3] = system: Streptococcus sanguinis (ATCC #BAA-1455); assay: Microtiter assay, MIC to inhibit 90% growth; assay type: cell-based; details: 24 hours, n = 3
Protocol: as §1, §2, §3
(§4) Microtiter Assay. A microtiter assay was completed E. coli, S. aureus, P. aeruginosa, S. enteria, S. sanguinis, and C. albicans. Briefly, 10^6 cfu/ml preparations of each organism were made and enumerated using a Petroff-Hausser counting chamber. A 100 μl aliquot of the inoculums was dispensed into microtiter plate wells and a 100 μl aliquot of treatment was dispensed into the same wells. Two separate set of wells were prepared as positive and negative controls, with the positive wells containing 100 μl test organism in growth media and 100 μl sterile phosphate buffer and with the negative control wells containing 100 μl of the same growth media and 100 μl sterile phosphate buffer. The plates were incubated overnight at the appropriate temperature for each organism. A plate reader was used to track the kinetic growth curve using 405 nm and […]. The last time point at 24 hours was averaged and used to determine MIC90. Each treatment was conducted in triplicate wells.

[4] = system: Staphylococcus aureus (ATCC #6538); assay: Microtiter assay, MIC to inhibit 90% growth; assay type: cell-based; details: 24 hours, n = 3
Protocol: as §1, §2, §3, §4

[5] = system: Salmonella enterica; assay: Microtiter assay, MIC to inhibit 90% growth; assay type: cell-based; details: 24 hours, n = 3
Protocol: as §1, §2, §3, §4

[6] = system: Pseudomonas aeruginosa (ATCC #9027); assay: Microtiter assay, MIC to inhibit 90% growth; assay type: cell-based; details: 24 hours, n = 3
Protocol: as §1, §2, §3, §4

[7] = system: Escherichia coli (ATCC #8739); assay: Microtiter assay, MIC to inhibit 90% growth; assay type: cell-based; details: 24 hours, n = 3
Protocol: as §1, §2, §3, §4

[8] = system: Candida albicans (ATCC #10231); assay: Microtiter assay, MIC to inhibit 90% growth; assay type: cell-based; details: 24 hours, n = 3
Protocol: as §1, §2, §3, §4

`CCCCCCCC(=O)O` [Caprylic Acid, octanoic acid] was tested, and the “Inhibition Diameter, C. albicans” value ([1]; 0.45% treatment) was 3.5 mm, the “Inhibition Diameter, C. albicans” value ([1]; 0.9% treatment) was 4.5 mm and the “Inhibition Diameter, C. albicans” value ([1]; 2.7% treatment) was 24.5 mm. For the same molecule, the “% Inhibition from Control” value ([2]; 0.045% in agar) was 34.60%, the “Diameter of Growth” value ([2]; 0.045% in agar) was 5.00 mm and the “% Inhibition from Control” value ([2]; 0.090% in agar) was 100.00%. For the same molecule, the “Diameter of Growth” value ([2]; 0.090% in agar) was 0.00 mm, the “% Inhibition from Control” value ([2]; 0.270% in agar) was 100.00% and the “Diameter of Growth” value ([2]; 0.270% in agar) was 0.00 mm. For the same molecule, the “MIC90 in the poison agar assay” value ([2]; potato dextrose agar, 25° C., 72 hrs) was 0.09%, the “Minimum Inhibitory Concentration (MIC) to inhibit 90% growth, S. sanguinis” value [3] was 0.09% and the “Minimum Inhibitory Concentration (MIC) to inhibit 90% growth, S. aureus” value [4] was 0.09%. For the same molecule, the “Minimum Inhibitory Concentration (MIC) to inhibit 90% growth, S. enterica” value [5] was 0.90%, the “Minimum Inhibitory Concentration (MIC) to inhibit 90% growth, P. aeruginosa” value [6] was 0.90% and the “Minimum Inhibitory Concentration (MIC) to inhibit 90% growth, E. coli” value [7] was 0.27%. For the same molecule, the “Minimum Inhibitory Concentration (MIC) to inhibit 90% growth, C. albicans” value [8] was 0.09%.
